Where two headings read alike, the source gives them in different places.
How the values were obtained:
[1] = Measurement of LogP values by HPLC on reversed phase columns (EEC directive 79/831 Annex V.A8); format: physicochemical; conditions: acidic range, 0.1% formic acid in water and acetonitrile as eluent; for chromatographic logP: read-out: logP (HCOOH)[a]
[2] = system: Cooperia curticei; experiment: Cooperia curticei assay (COOPCU), larval mortality; format: cell-based; conditions: Cooperia curticei, 120 h, after 5 days, read-out: activity (percentage of larval mortality); for mortality at 20 ppm: application rate 20 ppm
Protocol: Cooperia Curticei—Assay (COOPCU)
(§1) Solvent: dimethyl sulfoxide
(§2) To produce a suitable preparation, 10 mg of active compound are dissolved in 0.5 ml solvent, and the concentrate is diluted with “Ringer's solution” to the desired concentration.
Approximately 40 nematode larvae (Cooperia curticei) are transferred into a test tube containing the compound solution.
After 5 days percentage of larval mortality is recorded. 100% efficacy means all larvae are killed; 0% efficacy means no larvae are killed.

[3] = system: Haemonchus contortus; experiment: Haemonchus contortus assay (HAEMCO), larval mortality; format: cell-based; conditions: after 5 days
Protocol: Haemonchus Contortus—Assay (HAEMCO)
as §1, §2
Approximately 40 larvae of the red stomach worm (Haemonchus contortus) are transferred into a test tube containing compound solution.
After 5 days percentage of larval mortality are recorded. 100% efficacy means all larvae are killed, 0% efficacy means no larvae are killed.

[4] = system: Nippostrongylus brasiliensis; experiment: Nippostrongylus brasiliensis assay (NIPOBR), acetylcholine esterase readout; format: cell-based; conditions: read-out: activity (reduction of AChE compared to negative control)
Protocol: Nippostrongylus Brasiliensis—Assay (NIPOBR)
Adult Nippostrongylus brasiliensis were washed with saline buffer containing 100 U/ml penicillin, 0.1 mg/ml streptomycin and 2.5 μg/ml amphotericin B. Test compounds were dissolved in DMSO and worms were incubated in medium in a final concentration of 10 μg/ml (10 ppm) respectively 1 μg/ml (1 ppm). An aliquot of the medium was used to determine the acetylcholine esterase activity in comparison to a negative control. The principle of measuring acetylcholine esterase as readout for anthelmintic activity was described in Rapson et al (1986) and Rapson et al (1987).

[5] = system: Meloidogyne incognita; experiment: Meloidogyne incognita assay (MELGIN), gall formation on salad seedlings; format: in vivo; conditions: application rate 20 ppm, after 14 days
Protocol: Meloidogyne Incognita—Assay (MELGIN)
Solvent: 125.0 parts by weight of acetone
To produce a suitable preparation, 1 part by weight of active compound is mixed with the stated amount of solvent, and the concentrate is diluted with water to the desired concentration.
Vessels are filled with sand, a solution of the active ingredient, a suspension containing eggs and larvae of the southern root-knot nematode (Meloidogyne incognita) and salad seeds. The salad seeds germinate and the seedlings grow. Galls develop in the roots.
After 14 days the nematicidal activity is determined on the basis of the percentage of gall formation. 100% means no galls were found and 0% means the number of galls found on the roots of the treated plants was equal to that in untreated control plants.

[6] = Haemonchus contortus, 120 h, application rate 20 ppm, read-out: activity (percentage of larval mortality)

SMILES | chromatographic logP [1] | mortality at 20 ppm [2] [%] | mortality at 20 ppm [3, 6] [%] | inhibition at 10 µg/mL [4] [%] | nematicidal activity (percentage of gall formation) [5] [%] | other results
O=C(NCC(F)(F)c1ccc(-c2ccc(Cl)cc2)cc1Cl)c1ccccc1C(F)(F)F [Example 1] | 4.58 | 100 | 100 |  |  | inhibition at 10 µg/mL ([4]; 10 μg/ml, adult worms): ≥ 75%
O=C(NCC(F)(F)c1ccc(-c2ccccc2)cc1Cl)c1ccccc1C(F)(F)F [Example 2] | 4.05 | 100 | 100 |  |  | inhibition at 10 µg/mL ([4]; 10 μg/ml, adult worms): ≥ 75%
O=C(NCC(F)(F)c1ccc(-c2ccc(F)cc2)cc1Cl)c1ccccc1C(F)(F)F [Example 3, N-[2-[2-chloro-4-(4-fluorophenyl)phenyl]-2,2-difluoro-ethyl]-2-(trifluoromethyl)benzamide] | 4.14 | 100 | 100 |  |  | logP (HCOOH)[a] [1]: 4.10; inhibition at 10 µg/mL ([4]; 10 μg/ml, adult worms): ≥ 75%
O=C(NCC(F)(F)c1ccc(-c2ccc(Cl)cc2)cc1Cl)c1cccnc1C(F)(F)F [Example 4] |  |  |  |  |  | chromatographic logP ([1]; reversed phase HPLC columns): 4.14; mortality at 4 ppm ([2]; application rate 4 ppm): 100%; mortality at 4 ppm ([3]; Haemonchus contortus, 120 h, application rate 4 ppm, read-out: activity (percentage of larval mortality)): 90%
O=C(NCC(F)(F)c1ccc(-c2ccc(Cl)cc2)cc1F)c1ccccc1C(F)(F)F [Example 5] |  | 100 | 80 | ≥ 75 |  | 
O=C(NCC(F)(F)c1ccc(-c2ccc(F)cc2)cc1F)c1ccccc1C(F)(F)F [Example 7, N-(2-(3,4′-Difluoro-[1,1′-biphenyl]-4-yl)-2,2-difluoroethyl)-2-(trifluoromethyl)benzamide] |  | 100 | 90 |  |  | inhibition at 10 µg/mL ([4]; 10 μg/ml, adult worms): ≥ 75%
O=C(NCC(F)(F)c1ccc(-c2ccc(F)cc2)cc1Cl)c1cccnc1C(F)(F)F [Example 9] |  | 100 | 100 |  | 100 | chromatographic logP ([1]; reversed phase HPLC columns): 3.68
O=C(NCC(F)(F)c1ccc(-c2ccc(F)cc2)cc1C(F)(F)F)c1ccccc1C(F)(F)F [Example 12, N-(2,2-Difluoro-2-(4′-fluoro-3-(trifluoromethyl)-[1,1′-biphenyl]-4-yl)ethyl)-2-(trifluoromethyl)benzamide] |  | 100 | 100 |  |  | inhibition at 10 µg/mL ([4]; 10 μg/ml, adult worms): ≥ 75%
O=C(NCC(F)(F)c1ccc(-c2ccc(Cl)cc2)cc1C(F)(F)F)c1ccccc1C(F)(F)F [Example 13] |  | 100 | 90 |  |  | inhibition at 10 µg/mL ([4]; 10 μg/ml, adult worms): ≥ 75%
O=C(NCC(F)(F)c1ccc(-c2ccc(OC(F)(F)F)cc2)cc1F)c1ccccc1C(F)(F)F [Example 14] |  | 100 | 90 |  |  | 
O=C(NCC(F)(F)c1ccc(-c2ccc(OC(F)(F)F)cc2)cc1C(F)(F)F)c1ccccc1C(F)(F)F [Example 15] |  | 100 | 90 |  |  | 
O=C(NCC(F)(F)c1c(F)cc(-c2ccc(F)cc2)cc1F)c1ccccc1C(F)(F)F [Example 16] |  | 100 | 100 |  |  | chromatographic logP ([1]; reversed phase HPLC columns): 3.95
O=C(NCC(F)(F)c1ccc(-c2ccc(F)cc2)cc1C(F)(F)F)c1cccnc1C(F)(F)F [Example 17, N-(2,2-Difluoro-2-(4′-fluoro-3-(trifluoromethyl)-[1,1′-biphenyl]-4-yl)ethyl)-2-(trifluoromethyl)-nicotinamide] |  | 100 | 100 | ≥ 75 | 90 | 
O=C(NCC(F)(F)c1ccc(-c2ccc(Cl)cc2)cc1C(F)(F)F)c1cccnc1C(F)(F)F [Example 18] |  | 100 | 100 |  |  | 
O=C(NCC(F)(F)c1ccc(-c2ccc(F)cc2)cc1F)c1cccnc1C(F)(F)F [Example 19] |  | 100 | 100 |  |  | 
O=C(NCC(F)(F)c1ccc(-c2ccc(Cl)cc2)cc1F)c1cccnc1C(F)(F)F [Example 20] |  | 100 | 90 |  |  | 
O=C(NCC(F)(F)c1ccc(-c2ccc(F)c(C(F)(F)F)c2)cc1Cl)c1ccccc1C(F)(F)F [Example 21] | 4.55 | 100 | 90 | ≥ 75 |  | 
O=C(NCC(F)(F)c1ccc(-c2ccc(C(F)(F)F)c(F)c2)cc1Cl)c1ccccc1C(F)(F)F [Example 22] | 4.62 | 100 | 90 | ≥ 75 |  | 

SMILES | chromatographic logP [1] | mortality at 20 ppm [2] [%] | mortality at 20 ppm [3, 6] [%] | inhibition at 10 µg/mL [4] [%] | nematicidal activity (percentage of gall formation) [5] [%] | other results
O=C(NCC(F)(F)c1ccc(-c2ccc(SC(F)(F)F)cc2)cc1Cl)c1ccccc1C(F)(F)F [Example 23] | 4.98 | 100 | 100 | ≥ 75 |  | 
N#Cc1ccc(-c2ccc(C(F)(F)CNC(=O)c3ccccc3C(F)(F)F)c(Cl)c2)cc1F [Example 25] | 3.77 | 100 | 100 | ≥ 75 | 100 | 
CSc1ccc(-c2ccc(C(F)(F)CNC(=O)c3ccccc3C(F)(F)F)c(Cl)c2)cc1 [Example 26] |  | 100 | 100 |  |  | chromatographic logP ([1]; reversed phase HPLC columns): 4.43
N#Cc1ccc(-c2ccc(C(F)(F)CNC(=O)c3ccccc3C(F)(F)F)c(Cl)c2)cc1 [Example 27] | 3.62 | 100 | 100 | ≥ 75 | 100 | 
O=C(NCC(F)(F)c1ccc(-c2c(F)cccc2F)cc1Cl)c1ccccc1C(F)(F)F [Example 31] |  | 100 | 80 |  |  | chromatographic logP ([1]; reversed phase HPLC columns): 3.99
O=C(NCC(F)(F)c1ccc(-c2cc(F)c(F)c(F)c2)cc1Cl)c1ccccc1C(F)(F)F [Example 32] | 4.44 | 100 | 100 | ≥ 75 | 100 | 
O=C(NCC(F)(F)c1ccc(-c2ccc(F)c(F)c2)cc1Cl)c1ccccc1C(F)(F)F [Example 33] | 4.26 | 100 | 100 | ≥ 75 |  | 
COc1cc(-c2ccc(C(F)(F)CNC(=O)c3ccccc3C(F)(F)F)c(Cl)c2)ccc1F [Example 34] |  | 100 | 100 |  |  | chromatographic logP ([1]; reversed phase HPLC columns): 4.09
O=C(NCC(F)(F)c1ccc(-c2cc(F)cc(F)c2)cc1Cl)c1ccccc1C(F)(F)F [Example 35] | 4.3 | 100 | 100 | ≥ 75 | 100 | 
O=C(NCC(F)(F)c1ccc(-c2ccc(F)cc2F)cc1Cl)c1ccccc1C(F)(F)F [Example 36] | 4.22 | 100 | 100 | ≥ 75 |  | 
COc1cc(-c2ccc(F)cc2)ccc1C(F)(F)CNC(=O)c1ccccc1C(F)(F)F [Example 37] | 3.89 | 100 | 90 | ≥ 75 |  | 
N#Cc1ccc(-c2ccc(C(F)(F)CNC(=O)c3ccccc3C(F)(F)F)c(Cl)c2)cc1C(F)(F)F [Example 97] |  |  |  |  |  | logP (HCOOH)[a] [1]: 4.12; activity (percentage of larval mortality) ([3]; application rate 20 ppm): 80%
Cc1cc(-c2cccc(Cl)c2)ccc1C(F)(F)CNC(=O)c1ccccc1C(F)(F)F [Example 123] |  |  |  |  | 100 | logP (HCOOH)[a] [1]: 4.56
Cc1cc(-c2ccc(F)c(Cl)c2)ccc1C(F)(F)CNC(=O)c1ccccc1C(F)(F)F [Example 124] |  |  |  |  | 100 | logP (HCOOH)[a] [1]: 4.56
Cc1cc(-c2ccc(Cl)c(F)c2)ccc1C(F)(F)CNC(=O)c1ccccc1C(F)(F)F [Example 125] |  |  |  |  | 100 | logP (HCOOH)[a] [1]: 4.61
Cc1cc(-c2cc(F)c(Cl)c(F)c2)ccc1C(F)(F)CNC(=O)c1ccccc1C(F)(F)F [Example 126] |  |  |  |  | 90 | logP (HCOOH)[a] [1]: 4.77
Cc1cc(-c2cccc(F)c2F)ccc1C(F)(F)CNC(=O)c1ccccc1C(F)(F)F [Example 127] |  |  |  |  | 90 | logP (HCOOH)[a] [1]: 4.1
